Measurements from patent US20030138390A1, “Use of alcohol dehydrogenase inhibitors for cosmetic treatment of keratinous materials” (priority 2000, published 2003).

Biological target: T1, enzyme alcohol dehydrogenase (Saccharomyces cerevisiae, UniProt P00330)
T1 construct: purchased Sigma Diagnostics 333-B
T1 sequence (P00330 1-348): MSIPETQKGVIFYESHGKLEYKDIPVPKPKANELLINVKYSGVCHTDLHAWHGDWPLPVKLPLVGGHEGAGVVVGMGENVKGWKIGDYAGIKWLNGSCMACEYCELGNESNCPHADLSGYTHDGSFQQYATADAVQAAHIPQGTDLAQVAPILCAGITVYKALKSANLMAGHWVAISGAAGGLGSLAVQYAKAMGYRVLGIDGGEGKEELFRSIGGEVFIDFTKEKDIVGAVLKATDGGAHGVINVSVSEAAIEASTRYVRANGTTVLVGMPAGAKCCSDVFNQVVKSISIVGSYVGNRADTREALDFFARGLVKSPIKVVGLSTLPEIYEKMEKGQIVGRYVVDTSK
Experiment: Test of inhibition of the activity of the enzyme alcohol dehydrogenase (Sigma Diagnostics kit ref. 333-B)
Type: biochemical
Conditions: inhibitor 10^-3 M in the final mixture; 10 μl ethanol solution 0.08% w/v; incubated 10 minutes at room temperature; reference = 100
Protocol: Test of Inhibition of the Activity of the Enzyme Alcohol Dehydrogenase
The inhibition of the activity of the enzyme alcohol dehydrogenase was determined using a Sigma Diagnostics kit (ref. 333-B).
3 ml of the Alcohol Reagent, 10 μl of ethanol solution (0.08% ethanol w/v ref. 330-20) and 10 μl of inhibitor solution in distilled water are incubated for 10 minutes at room temperature.
For each assay, a blank consisting of 3 ml of the Alcohol Reagent, 10 μl of distilled water and 10 μl of inhibitor solution in distilled water is prepared.
The inhibitors are diluted so as to be at a concentration of 10^−3 M in the final mixture.
After incubation of the mixture, 100 μl are taken up and read over a 10-minute interval at 340 nm. The readings are performed in 96-well UV microplates using a UV-visible multiwell spectrophotometer (Spectramax Plus—Molecular Devices) against the blank.
The inhibition results are expressed as a percentage of absorbance at 340 nm relative to a reference (no inhibitor in the mixture): […]

percentage of absorbance at 340 nm relative to a reference (no inhibitor in the mixture) [%]	SMILES
35	Cc1cn[nH]c1 [4-Methylpyrazole]
32	c1c[nH]cn1 [Imidazole]
16	c1cn[nH]c1 [Pyrazole]

SMILES	percentage of absorbance at 340 nm relative to a reference (no inhibitor in the mixture) [%]
OCC(Cl)(Cl)Cl [2,2,2-Trichloroethanol]	-12
CCn1nc(C)c(N)c1N [2-Ethyl-5-methyl-2H-3,4-diaminopyracole]	31
